Measurements: patent publication US20060035317A1, “Effect of treatment with 4,5-dihydroxy-2-cyclopenten-1-one (dhcp) on gene expression and quorum-sensing in bacteria” (priority 2002, published 2006)
Like-named read-outs stand apart in the source and are kept apart here.

How the values were obtained:
E. coli JM83 = settings: DHCP 250 μM, Phadtare et al., 2001, cited from earlier work
[1] = system: E. coli wild-type strain JM83 (gene expression); assay: Primer extension analysis of mRNA levels in DHCP-treated vs control cells; type: cell-based; settings: DHCP 250 μM, 8 h
Protocol: FIG. 1 are gels showing the effect of DHCP on the levels of mRNAs. Total RNA was extracted by the hot phenol method as described in the Materials and Methods section of Example 1, and primer extension analysis was carried out with oligonucleotides corresponding to osmY, dps, rpoS, katG, cysK, tehA, zipA, and ompF. Lanes 1 and 2 in each case represent mRNAs isolated from control (untreated) and DHCP treated cells, respectively.
E. coli wild-type strain JM83 [F^− araΔ(lac-proAB) rpsL(str^r)] (Yanisch-Perron et al., 1985) was grown in Luria broth (LB). V. harveyi strains BB152 and BB170 were a gift from Dr. Bonnie Bassler (Princeton University). These strains were grown in AB medium as described previously (Surette et al., 1999).
E. coli cells grown overnight in LB medium were diluted into fresh LB medium. After the growth reached a Klett unit of 50, DHCP was added (250 μM) and growth was further monitored. After growth reached a Klett unit of 90-100, it was diluted 10-fold into a medium containing the same concentration of DHCP as described previously (Phadtare et al., 2001). The cells were harvested after a total of 8 h of incubation with DHCP. […] The total RNA was extracted by the hot phenol method described previously (Sarmientos et al., 1983). It was further purified by RNeasy Minikit (Qiagen) and was then treated with DNase I followed by phenol-chloroform treatment and ethanol precipitation. It was quantified by measuring absorbance at 260 nm. The purity of RNA was confirmed by agarose gel electrophoresis.
The primers used for detection of the respective mRNAs were: Primer 750077, 5′-[…]-3′ (SEQ ID NO:1), that corresponds to the sequence from the 15th to the 8th codon of osmY (Yim et al., 1992); primer 750078, 5′-[…]-3′ (SEQ ID NO:2), that corresponds to the sequence from the 16th to the 9th codon of dps (Altuvia et al., 1994); Primer 979747, 5′-[…]-3′ (SEQ ID NO:3), that corresponds to the region from the 6th codon of rpoS (Takayanagi et al., 1994); primer 956660, 5′-AGT […]-3′ (SEQ ID NO:4), that corresponds to the region from 13th to the 6th codon of katG (Triggs-Raine et al., 1998); primer 3969805, 5′-[…]-3′ (SEQ ID NO:5), that corresponds to the region from 20th to the 13th codon of cysK (Byrne et al., 1988); primer 3969806, 5′-[…]-3′ (SEQ ID NO:6), that corresponds to the region from 13th to the 6th codoh of tehA (Walter et al., 1991); primer 3969807, 5′[…]-3′ (SEQ ID NO:7), that corresponds to the region from 10th to the 3rd codon of zipA (Hale et al., 1997); and primer 7018 5′-[…]-3′ (SEQ ID NO:8), that includes the region encompassing from the first codon of ompF (accession numbers, J01655, M10311 and M10312). The primers were labeled with [γ-^32P] ATP (Du-Pont-New England Nuclear] by using T4 polynucleotide kinase (Gibco BRL). Primer extension was carried out with 5 μg of RNA at 42° C. for 1 h in a final reaction volume of 10 μl, with 50 mM Tris-HCl (pH 8.5), 8 mM MgCl2, 30 mM KCl, 1 mM dithiothreitol, 0.4 pmol of ^32P-labeled primer, 0.5 mM each of the dNTPs, 10 U RNase inhibitor (Boehringer Mannheim) and 6.25 U of reverse transcriptase (Boehringer Mannheim). The products were analyzed on a 6% polyacrylamide gel under denaturing conditions. Quantitation of primer extension products was carried out by direct radioactive measurements.

O=C1C=CC(O)C1O (stereo not shown) [DHCP, 4,5-dihydroxy-2-cyclopenten-1-one]
Growth of E. coli JM83 (E. coli JM83; after 3 h of incubation): severely impaired
Growth of E. coli JM83 (E. coli JM83; after 5 h): stopped growing
Primer extension: ratio of mRNA level DHCP-treated to control ([1]; gene cysK): 18.00
Primer extension: ratio of mRNA level DHCP-treated to control ([1]; gene dps): 12.00
Primer extension: ratio of mRNA level DHCP-treated to control ([1]; gene katG): 9.00
Primer extension: ratio of mRNA level DHCP-treated to control ([1]; gene ompF): 0.06
Primer extension: ratio of mRNA level DHCP-treated to control ([1]; gene osmY): 15.00
Primer extension: ratio of mRNA level DHCP-treated to control ([1]; gene rpoS): 4.00
Primer extension: ratio of mRNA level DHCP-treated to control ([1]; gene tehA): 5.00
Primer extension: ratio of mRNA level DHCP-treated to control ([1]; gene zipA): 5.00
